Results reported in US20110076331A1, “Use of Deuterium Oxide as an Elastase Inhibitor” (priority 2008, published 2011).

How the values were obtained:
[1] = tested on: elastase activity in the blister fluid; assay: Ex vivo bullous pemphigoid blister fluid: degradation of recombinant BP180 antigen; format: biochemical, human; settings: added to blister fluid; autoradiography after gel electrophoresis; vs untreated control
Procedure: The blister fluid in patients with bullous pemphigoid was sampled in an ex vivo model (Verraes et al., 2001). Recombinant radioactively-labeled BP180 antigen, the target antigen in this disease, was then added to the blister fluid and decay determined autoradiographically after gel electrophoresis. For inhibition of elastase activity in the blister fluid either D2O or the elastase inhibitor chloromethyl ketone was added to it. An untreated control served as comparison. Both with chloromethyl ketone and with D2O the degradation of the recombinant BP180 antigen could be inhibited, whereas the protein was almost completely degraded by the untreated blister fluid.

[2] = tested on: patients with psoriasis vulgaris; assay: Half-side hydrogel experiment in psoriasis vulgaris; format: in vivo, human; settings: 2 wt % Carbopol 980 gel with 1 wt % urea, twice a day, after 4 weeks; vs H2O gel
Procedure: A half-side experiment was conducted by means of hydrogel to determine the effect of D2O in psoriasis vulgaris. The gel was a 2 wt % Carbopol 980 with 1 wt % urea. The pH value of the gel was set at 6.5 with NaOH solution. […] The local psoriasis severity index (LPSI) was used for evaluation (Henneicke-von Zepelin, H. H., Mrowietz, U., Färber, L., Bruck-Borchers, K., Schober, C., Huber, J., Lutz, G., Kohnen, R., Christophers, E., Welzel, D., Highly purified omega-3-polyunsaturated fatty acids for topical treatment of psoriasis. Results of a double-blind, placebo-controlled multicenter study. Br J Dermatol. 1993; 129:713-7). The patients were relied on to apply the content of tubes marked “right” and “left” twice a day on the corresponding lesions on the right or left elbow. A gel produced with D2O was found in one tube, the gel in the other tube was prepared with H2O. Division occurred randomly. LPSI was determined once a week.

Wistar rats [3] = assay: Animal model of infectious peritonitis (S. aureus ATCC 25923), peritoneal lavage; format: in vivo, rat; settings: peritoneal lavage 4 hours after S. aureus, vs isotonic saline
Procedure: Male Wistar rats received a catheter for peritoneal dialysis and for induction of peritonitis and for further peritoneal dialysis. A purulent peritonitis was produced by introduction of a suspension of S. aureus ATCC 25923 (1×10^9 c.f.u. in 0.5 mL). After 4 hours peritoneal lavage was carried out either with isotonic saline or with isotonic […]. After the death of the animals, but at the latest after 24 hours, bacterial infestation and the inflammatory reaction in the peritoneum were investigated histologically.

[4] = tested on: subjects with colds accompanied by severe nasal obstruction; assay: Decongestion of nasal mucosa (rhinomanometry); format: in vivo, human; settings: one pump spray of D2O saline in each nostril
Procedure: Physiological saline was prepared from D2O (experiment group) and H2O (control group) and filled into a pump spray container as is ordinarily used to release nasal spray. Subjects with colds accompanied by severe nasal obstruction were divided into two groups of eight subjects each. Air flow through the nose was determined by rhinomanometry (initial value) in each subject right before treatment (after thorough removal of secretions). The subjects of the experimental group then each received one pump spray of D2O saline in each nostril, while the subjects of the control group received H2O saline instead in the same amount. Thirty and 60 minutes after application air flow was determined in each subject by rhinomanometry and the percent change of air flow relative to the initial value was calculated. From these values an average was formed for the verum and control groups (average percentage change in air flow <Lf%>). A positive value of <Lf%> indicates an increase, a negative value a reduction in air flow. For the experimental group after 30 minutes a value of <Lf%>=20±5% and after 60 minutes <Lf%>=90±10% was obtained. The control group gave <Lf%>=10±5% after 30 minutes and <Lf%>=5±5% after 60 minutes.

Wistar rats [5] = assay: Animal model of allergic conjunctivitis (chicken protein); format: in vivo, rat; settings: D2O-based isotonic saline trickled together with chicken protein
Procedure: A corresponding animal model was used to test the efficacy of eye drops prepared with D2O (Minami et al., Biol. Pharm. Bull 28:473-476, 2005). In 6-week-old Wistar rats an allergy to chicken protein was produced by injection of chicken protein together with alum and 10^10 B. pertussis into the soles of the feet and then a booster with chicken protein in the back area. Before the experiment the animals were kept in a climatized cage and after 10 minutes of adaptation 5 μL chicken protein solution was trickled into each eye. The animals were then transferred to an observation cage and the scratching movements in the direction of the eyes counted over a period of 20 minutes. Hyperemia and conjunctival edema were then determined.
To investigate an effect of D2O on the symptoms caused by chicken protein either H2O- or D2O-based isotonic saline was trickled together with the chicken protein in a double-blind design.

[6] = tested on: patients with leukocytoclastic skin vasculitis; assay: Half-side gel experiment in leukocytoclastic skin vasculitis; format: in vivo, human; settings: D2O-containing gel on lower leg three times a day, 4 days; vs H2O gel
Procedure: Leukocytoclastic skin vasculitis is characterized by recurring behavior. A special feature of this dermatosis is destruction of cutaneous capillaries by an inflammatory process in which neutrophil granulocytes participate almost exclusively. To check the effect of D2O-containing gel on the extent of cutaneous lesions patients with leukocytoclastic skin vasculitis were treated in a half-side experiment. Either an H2O- or D2O-containing gel were applied in randomized fashion on the right or left lower leg three times a day. After a treatment time of 4 days the treatments was compared by means of a clinical score that evaluates the number and expression of vasculitis lesions.

degradation of the recombinant BP180 antigen [1]: inhibited
Structure (SMILES): [2H]O[2H] [D2O, deuterium oxide]
local psoriasis severity index (LPSI) [2]: significant reduction of LPSI
inflammatory activity in the peritoneum (Wistar rats [3]; histology): lower inflammatory activity
number of bacteria in the quantitative culture (Wistar rats [3]): reduced number of bacteria
average percentage change in air flow <Lf%> ([4]; after 30 minutes): 20±5%
average percentage change in air flow <Lf%> ([4]; after 60 minutes): 90±10%
number of scratching movements in the eye direction (Wistar rats [5]; after 20 minutes, vs H2O): significant reduction in the number of scratching movements
hyperemia and edema (Wistar rats [5]; vs H2O group): reduced
clinical score (number and expression of vasculitis lesions) [6]: distinct reduction of the clinical score
